Results on one compound are retold here after US12012394B2, “Alpha-synuclein ligands” (Washington University, priority 2018, dated 2024).

For assay [1], the target named is Aβ fibrils (Homo sapiens (Human), UniProt P05067). Kind of assay: Homologous competition radioligand binding assay, Aβ fibrils. Conditions: 150 nM Aβ fibrils. The protocol:
Synthetic Aβ1-42 peptide (1 mg) (Bachem, Torrance, CA) was first dissolved in 50 μl DMSO. An additional 925 μl of mQ-H2O was added. Finally, 25 μl 1M Tris-HCl pH 7.6 was added to bring the final peptide concentration to 222 μM (1 mg/ml). The dissolved peptide was incubated for 30 h at 37° C. with shaking at 1000 rpm in an Eppendorf Thermomixer. Fibril formation was confirmed by ThioT fluorescence. To determine the concentration of fibrils, the fibril reaction mix was centrifuged at 15,000×g for 15 min to separate fibrils from monomer. The concentration of Aβ monomer in the supernatant was determined in a BCA protein assay using a BSA standard curve that contained DMSO at a percentage equivalent to the samples. […]
These direct binding assays used a fixed concentration of either fibrils or PD/AD tissue and the radioligand (e.g., [^18F]28) and varying concentration ranges of corresponding homologous non-radiolabeled standard reference compound. […] Reactions were incubated at 37° C. for 1 h before quantifying bound radioligand. […] Filters containing the bound ligand were mixed with 150 μL of Optiphase Supermix scintillation cocktail (PerkinElmer) and counted immediately. […] The dissociation constant (Kd) and the maximal number of binding sites (Bmax) values were determined by fitting the data to the equation. […]

For assay [2], the target named is Banner PD-seeded α-synuclein fibrils (Homo sapiens (Human), UniProt P37840). Kind of assay: Homologous competition radioligand binding assay, PD-seeded fibrils. Conditions: 150 nM Banner PD seeded fibrils. The protocol:
The equilibrium dissociation constant (Kd) for a series of compounds was determined using direct radioactive competitive binding assays (homologous or heterologous) with either recombinant α-synuclein fibrils or brain tissue homogenates from AD cases.
Recombinant protein was produced in E. coli using protocols based on previously described methods for α-synuclein [Giasson, B. I., et al., “Mutant and wild type human alpha-synucleins assemble into elongated filaments with distinct morphologies in vitro,” 1999, J Biol. Chem., 274:7619-7622; Huang, C., et al., “A new method for purification of recombinant human alpha-synuclein in Escherichia coli,” 2005, Protein Expr Purif, 42:173-177; Yu, L., et al, “Synthesis and in vitro evaluation of á-synuclein ligands,” 2012, Bioorg. Med. Chem., 20:4625-4634] and tau [Li, W., et al., “Characterization of two VQIXXK motifs for tau fibrillization in vitro,” 2006, Biochemistry, 45:15692-15701]. BL21(DE3)RIL E. coli were transformed with a pRK172 bacterial expression plasmid containing the human α-synuclein coding sequence. […]. Overnight cultures were centrifuged at 3,900×g for 10 min at 25° C. and the bacterial pellets were resuspended by gentle vortexing in 20 ml osmotic shock buffer (30 mM Tris-HCl, 2 mM EDTA, 40% Sucrose, pH 7.2) and then incubated at room temperature for 10 min. The cell suspension was then centrifuged at 8,000×g for 10 min at 25° C. and the pellet was resuspended in 22.5 ml cold H2O before adding 9.4 μl 2 M MgCl2 to each tube. The suspension was incubated on ice for 3 min prior to centrifugation at 20,000×g for 15 min at 4° C. After the supernatant was transferred to a fresh tube, streptomycin was added to a final concentration of 10 mg/ml and centrifuged at 20,000×g for 15 min at 4° C. The supernatant from this step was collected and dithiothreitol (DTT) and Tris-HCl pH 8.0 were added to final concentrations of 1 mM and 20 mM respectively, before boiling for 10 min to precipitate heat-sensitive proteins, which were pelleted at 20,000×g for 15 min at 4° C. The supernatant was collected and filtered through a 0.45 μm surfactant-free cellulose acetate filter (Corning) before loading onto a 1 ml DEAE Sepharose column equilibrated in 20 mM Tris-HCl pH 8.0, 1 mM EDTA, and 1 mM DTT. The DEAE column was washed with 20 mM Tris-HCl pH 8.0, 1 mM EDTA, 1 mM DTT before eluting α-synuclein protein in 20 mM Tris-HCl pH 8.0 buffer with 1 mM EDTA, 1 mM DTT and 0.3 M NaCl. Purified α-synuclein protein was dialyzed overnight in 10 mM Tris-HCl pH 7.6, 50 mM NaCl, 1 mM DTT.
Purified recombinant α-synuclein monomer (2 mg/ml) was incubated in 20 mM Tris-HCl, pH 8.0, 100 mM NaCl for 72 h at 37 C with shaking at 1000 rpm in an Eppendorf Thermomixer. […] The concentration of α-synuclein monomer in the supernatant was determined in a BCA protein assay according to the manufacturer's instructions, using a bovine serum albumin (BSA) standard curve. The measured decrease in α-synuclein monomer concentration was used to determine the concentration of fibrils in the 72 h fibril reaction mixture. […]
These direct binding assays used a fixed concentration of either fibrils or PD/AD tissue and the radioligand (e.g., [^18F]28) and varying concentration ranges of corresponding homologous non-radiolabeled standard reference compound. […] Reactions were incubated at 37° C. for 1 h before quantifying bound radioligand. […]

SMILES strings stand for the structures.

Chain of Aβ fibrils (P05067 672-713): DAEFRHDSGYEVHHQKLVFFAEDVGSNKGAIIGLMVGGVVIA

As a reminder, the Kd is the concentration at which binding is half-saturated. On to `COc1ccc2nc(-c3csc(C=O)c3)ccc2c1` [TZ55-81], for which the Kd came out at 12 nM in assay [1] and 29 nM in assay [2].
